In patent US20150150935A1, “[…] RECEPTOR AGONISTS FOR REDUCING PAIN AND INFLAMMATION” (CARA THERAPEUTICS, INC., priority 2012, published 2015):

Key:
[1] = test system: women after laparoscopic-assisted hysterectomy; conditions: cited from earlier work
[2] = test system: patients undergoing a laparoscopic hysterectomy; assay: Phase 2 double-randomized placebo-controlled trial, CR845 dosed preoperatively and postoperatively, analgesic efficacy; assay type: in vivo, human
Description: This trial was a phase 2 multi-center, double-randomized, double-blind, placebo-controlled study was conducted to evaluate the analgesic efficacy and safety of intravenous CR845 dosed preoperatively and postoperatively in patients undergoing a laparoscopic hysterectomy. The trial was conducted under an investigational new drug application (IND) filed with the US Food and Drug Administration (FDA).
This phase 2 trial multi-center, double-randomized, double-blind, placebo-controlled study was conducted in 22 sites in the United States. All clinical procedures were approved by the relevant Institutional Review Board (IRB) in compliance with the applicable laws and regulations of the US. The study was initiated up to fourteen (14) days preoperatively and the in-hospital period was approximately twenty-four (24) hours for each patient and follow up was conducted within seven (7) days of discharge from the hospital.
The aim of this clinical trial was to evaluate the analgesic efficacy and safety of intravenous (IV) CR845 dosed preoperatively and postoperatively in female patients undergoing an elective laparoscopic hysterectomy. Secondary objectives were: 1. […] To evaluate the safety and tolerability of CR845.
This Phase 2, double-randomized, double-blind, placebo-controlled, parallel group study was conducted in approximately 200 female subjects, aged 18 to 65, across 22 US clinical sites. All subjects were administered a 15-minute IV infusion of 0.04 mg/kg CR845 or matching placebo before surgery in a 1:1 ratio. After surgery and upon reaching a pain intensity baseline level of at least 4 on a 10 cm visual analog scale (VAS), subjects were also re-randomized in a 1:1 ratio to receive a second IV infusion of either 0.04 mg/kg of CR845 or placebo. All doubly-randomized patients were thereby randomized to receive one of four possible treatment regimens: placebo-placebo, placebo-CR845, CR845-placebo, or CR845-CR845 (See FIG. 1). Pain intensity and pain relief scores were assessed up to 24 hours following the post-surgery infusion. Patients were allowed IV morphine for rescue at any point during the post-operative period, if requested.
The main efficacy endpoints were the total morphine consumption in the first 24 hours in patients who were re-randomized in the postoperative period and the efficacy of CR845 in reducing pain intensity including time specific VAS difference; summed pain intensity differences (SPIDs); area under the curve (AUC); pain relief; and the proportion of patients that were randomized to receive preoperative CR845 with no rescue medication postoperatively. The safety endpoints included the incidence of adverse events, physical examination, vital signs, 12-lead ECG, clinical laboratory evaluations, and cumulative fluid balance.

[3] = test system: patients post laparoscopic surgery; assay: Adverse events in subjects treated with CR845 or placebo, Phase IIb trial; assay type: in vivo, human; conditions: first 24 hours post laparoscopic surgery; all CR845 treated groups; FIG. 15
Description: Data are from a Phase IIb clinical trial in which subjects were administered CR845 or placebo. Generalized pruritus was distinguished from local pruritus events and shown separately in FIG. 15. Adverse events were lower in all CR845 treated patient groups as compared with placebo treated patients.

## CC(C)C[C@@H](NC(=O)[C@@H](Cc1ccccc1)NC(=O)[C@H](N)Cc1ccccc1)C(=O)N[C@H](CCCCN)C(=O)N1CCC(N)(C(=O)O)CC1 [CR845, D-Phe-D-Phe-D-Leu-D-Lys-[ω(4-aminopiperidine-4-carboxylic acid)]-OH]
[1]; 0.04 mg/kg 15-minute IV infusion after surgery, first 16 hours post-infusion
  Reduction of morphine use versus placebo: 32%
[1]; 0.04 mg/kg IV after surgery, versus placebo
  Opioid side effects (vomiting, nausea and pruritis): significant reduction
[1]; 0.04 mg/kg IV after surgery
  Changes in clinical lab test results, vital signs, electrocardiograms, Ramsey sedation scale: no significant changes
[1]; administered after surgery
  Reduction of pain intensity: effective
  Safety and tolerability: safe and well tolerated
[1]; single intravenous dose after surgery
  Tolerability in comparison to other known kappa agonists: better tolerated
[2]; CR845-CR845 (0.04 mg/kg IV before and after surgery), first 24 hours, FIG. 2
  Reduction in summed pain intensity difference (SPID) pain score versus placebo only: more than twice the reduction
[2]; CR845-CR845 (before and after surgery), over 24 hours, FIG. 3
  Reduction in pain intensity difference (PID) pain score versus placebo only: twice the reduction
[2]; CR845 before and after surgery, among four groups
  Pain relief as judged by PID score: highest pain intensity difference
[2]; CR845 pretreatment groups (CR845-CR845, CR845-Placebo, CR845-None)
  Patients' overall evaluation of pain relief as excellent: highest percentage of patients
[2]; one dose of CR845, before or after surgery, first 24 hours, FIG. 2
  Reduction in pain SPID scores: intermediate level of reduction
[2]; one dose of CR845, before or after surgery, first 24 hours, FIG. 3
  Reduction in pain PID scores: intermediate level of reduction
[2]; two doses of CR845, intervals 2-4, 4-12 and 12-24 hours post surgery, FIG. 4
  Morphine self-administered by the patients: least morphine
[3]
  Adverse events (nausea, vomiting and pruritus) compared with placebo: lower
